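Step 1: Grow cells in 96-well plates. Step 2: Expose to compound for 48 hours at 5 concentrations. Step 3: Interpolate endpoints linearly; if unreached, use highest concentration. GI50 = concentration required for 50% inhibition of growth. TGI: total growth inhibition.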 *1 amine or outer side, *2 acyl side, *3 side chain or, on linkers, in order; H or OH if unused. Where a SMILES comes first, the peptide text is derived from it. Bridges are numbered along the chain shown (N, C = ends). [ ]: non-standard residue; d: D form. The star is where a group is joined. ξ: configuration not given here. X34 = O=C(C(CCCCNO[*:3])N[*:1])[*:2]; Fmoc = O=C(OCC1c2ccccc2-c2ccccc21)*; ξW = NC(Cc1c[nH]c2ccccc12)C(=O)O; ξP = O=C(O)C1CCCN1
Tests used:
Experiment in all cases: NCI anticancer screen, dose series, 48 h
[1] = tested on: COLO 205 colon
[2] = tested on: RPMI-8226 leukemia
[3] = tested on: UO-31 renal
[4] = tested on: SW-620 colon
[5] = tested on: EKVX NSCLC
[6] = tested on: T-47D breast
[7] = tested on: UACC-62 melanoma
[8] = tested on: MDA-MB-231 breast
[9] = tested on: ACHN renal
[10] = tested on: SK-OV-3 ovarian
[11] = tested on: RXF 393 renal
[12] = tested on: NCI-H522 lung
[13] = tested on: A549 NSCLC
[14] = tested on: OVCAR-8 ovarian
[15] = tested on: LOX IMVI melanoma
[16] = tested on: IGROV1 ovarian
[17] = tested on: TK-10 renal
[18] = tested on: OVCAR-4 ovarian
[19] = tested on: NCI/ADR-RES ovarian
[20] = tested on: DU-145 prostate
[21] = tested on: NCI-H23 lung
[22] = tested on: K-562 leukemia
[23] = tested on: SK-MEL-28 melanoma
[24] = tested on: OVCAR-3 ovarian
[25] = tested on: HOP-62 NSCLC
[26] = tested on: HCC-2998 colon
[27] = tested on: HS 578T breast
[28] = tested on: HCT-15 colon
[29] = tested on: HCT-116 colon
[30] = tested on: UACC-257 melanoma
[31] = tested on: SF-295 CNS
[32] = tested on: SN12C renal
[33] = tested on: PC-3 prostate
[34] = tested on: MDA-MB-435
[35] = tested on: OVCAR-5 ovarian
[36] = tested on: KM12 colon
[37] = tested on: SK-MEL-5 melanoma
[38] = tested on: M14 melanoma
[39] = tested on: CAKI-1 renal
[40] = tested on: MCF7 breast
[41] = tested on: MOLT-4 leukemia
[42] = tested on: SNB-75 CNS
[43] = tested on: NCI-H226 lung
[44] = tested on: U251 CNS
[45] = tested on: BT-549 breast
[46] = tested on: SF-539 CNS
[47] = tested on: SK-MEL-2 melanoma
[48] = tested on: SNB-19 CNS
[49] = tested on: 786-0 renal
[50] = tested on: MALME-3M melanoma
[51] = tested on: SF-268 CNS
[52] = tested on: HT29 colon
[53] = tested on: HL-60(TB) leukemia
[54] = tested on: CCRF-CEM leukemia
[55] = tested on: HOP-92 NSCLC
[56] = tested on: NCI-H460 lung
[57] = tested on: SR leukemia
[58] = tested on: A498 renal

Structure (SMILES): NC(=O)CNC(=O)C1CCCN1C(=O)C1CCCCNOC(=O)CC[C@@H](NC(=O)OCC2c3ccccc3-c3ccccc32)C(=O)NC(Cc2c[nH]c3ccccc23)C(=O)N1 (stereo partly specified) (Fmoc-[dE][ξW][X34][ξP]G-NH2; ester 1-3)
- TGI [1]: > 100 µM
- TGI [2]: > 100 µM
- TGI [3]: > 100 µM
- TGI [4]: > 100 µM
- TGI [5]: > 100 µM
- TGI [6]: > 100 µM
- TGI [7]: > 100 µM
- TGI [8]: > 100 µM
- TGI [9]: > 100 µM
- TGI [10]: > 100 µM
- TGI [11]: > 100 µM
- TGI [12]: > 100 µM
- TGI [13]: > 100 µM
- TGI [14]: > 100 µM
- TGI [15]: > 100 µM
- TGI [16]: > 100 µM
- TGI [17]: > 100 µM
- TGI [18]: > 100 µM
- TGI [19]: > 100 µM
- TGI [20]: > 100 µM
- TGI [21]: > 100 µM
- TGI [22]: > 100 µM
- TGI [23]: > 100 µM
- TGI [24]: > 100 µM
- TGI [25]: > 100 µM
- TGI [26]: > 100 µM
- TGI [27]: > 100 µM
- TGI [28]: > 100 µM
- TGI [29]: > 100 µM
- TGI [30]: > 100 µM
- TGI [31]: > 100 µM
- TGI [32]: > 100 µM
- TGI [33]: > 100 µM
- TGI [34]: > 100 µM
- TGI [35]: > 100 µM
- TGI [36]: > 100 µM
- TGI [37]: > 100 µM
- TGI [38]: > 100 µM
- TGI [39]: > 100 µM
- TGI [40]: > 100 µM
- TGI [41]: > 100 µM
- TGI [42]: > 100 µM
- TGI [43]: > 100 µM
- TGI [44]: > 100 µM
- TGI [45]: > 100 µM
- TGI [46]: > 100 µM
- TGI [47]: > 100 µM
- TGI [48]: > 100 µM
- TGI [49]: > 100 µM
- TGI [50]: > 100 µM
- TGI [51]: > 100 µM
- TGI [52]: > 100 µM
- TGI [53]: > 100 µM
- TGI [54]: > 100 µM
- TGI [55]: > 100 µM
- TGI [56]: > 100 µM
- TGI [57]: > 100 µM

Structure (SMILES): COC(=O)c1cc2c3ccccc3[nH]c2c2ncccc12
- GI50 [1]: > 100 µM
- TGI [1]: > 100 µM
- GI50 [2]: 56.3 µM
- TGI [2]: > 100 µM
- GI50 [3]: 69.4 µM
- TGI [3]: > 100 µM
- GI50 [4]: 38.4 µM
- TGI [4]: > 100 µM
- GI50 [5]: 11.5 µM
- TGI [5]: > 100 µM
- GI50 [6]: 3.12 µM
- TGI [6]: > 100 µM
- GI50 [7]: > 100 µM
- TGI [7]: > 100 µM
- GI50 [8]: 63.9 µM
- TGI [8]: > 100 µM
- GI50 [9]: 11.2 µM
- TGI [9]: > 100 µM
- GI50 [10]: 43.3 µM
- TGI [10]: > 100 µM
- GI50 [11]: > 100 µM
- TGI [11]: > 100 µM
- GI50 [12]: 86 µM
- TGI [12]: > 100 µM
- GI50 [13]: 75.1 µM
- TGI [13]: > 100 µM
- GI50 [14]: 61.2 µM
- TGI [14]: > 100 µM
- GI50 [15]: 9.46 µM
- TGI [15]: > 100 µM
- GI50 [16]: 2.09 µM
- TGI [16]: > 100 µM
- GI50 [17]: 12 µM
- TGI [17]: > 100 µM
- GI50 [18]: 57.3 µM
- TGI [18]: > 100 µM
- GI50 [19]: 56.2 µM
- TGI [19]: > 100 µM
- GI50 [20]: 47.1 µM
- TGI [20]: > 100 µM
- GI50 [21]: 27.2 µM
- TGI [21]: > 100 µM
- GI50 [22]: 75.3 µM
- TGI [22]: > 100 µM
- GI50 [23]: 85.8 µM
- TGI [23]: > 100 µM
- GI50 [24]: > 100 µM
- TGI [24]: > 100 µM
- GI50 [25]: 68.9 µM
- TGI [25]: > 100 µM
- GI50 [26]: 73.8 µM
- TGI [26]: > 100 µM
- GI50 [27]: 15.4 µM
- TGI [27]: 87 µM
- GI50 [28]: 21.4 µM
- TGI [28]: > 100 µM
- GI50 [29]: 54.9 µM
- TGI [29]: > 100 µM
- GI50 [30]: > 100 µM
- TGI [30]: > 100 µM
- GI50 [31]: 36.9 µM
- TGI [31]: > 100 µM
- GI50 [32]: > 100 µM
- TGI [32]: > 100 µM
- GI50 [33]: > 100 µM
- TGI [33]: > 100 µM
- GI50 [34]: > 100 µM
- TGI [34]: > 100 µM
- GI50 [35]: 32.3 µM
- TGI [35]: > 100 µM
- GI50 [58]: > 100 µM
- TGI [58]: > 100 µM
- GI50 [36]: 81.1 µM
- TGI [36]: > 100 µM
- GI50 [37]: 58 µM
- TGI [37]: > 100 µM
- GI50 [39]: 8.12 µM
- TGI [39]: > 100 µM
- GI50 [40]: 14.4 µM
- TGI [40]: > 100 µM
- GI50 [41]: > 100 µM
- TGI [41]: > 100 µM
- GI50 [42]: 17.3 µM
- TGI [42]: 65.3 µM
- GI50 [43]: > 100 µM
- TGI [43]: > 100 µM
- GI50 [44]: 30.6 µM
- TGI [44]: > 100 µM
- GI50 [45]: 17.9 µM
- TGI [45]: 78.8 µM
- GI50 [46]: 17.4 µM
- TGI [46]: > 100 µM
- GI50 [47]: > 100 µM
- TGI [47]: > 100 µM
- GI50 [48]: 66.5 µM
- TGI [48]: > 100 µM
- GI50 [49]: 61.2 µM
- TGI [49]: > 100 µM
- GI50 [50]: > 100 µM
- TGI [50]: > 100 µM
- GI50 [51]: 53.5 µM
- TGI [51]: > 100 µM
- GI50 [52]: 59.2 µM
- TGI [52]: > 100 µM
- GI50 [53]: > 100 µM
- TGI [53]: > 100 µM
- GI50 [54]: 32.4 µM
- TGI [54]: > 100 µM
- GI50 [55]: > 100 µM
- TGI [55]: > 100 µM
- GI50 [56]: 51.4 µM
- TGI [56]: > 100 µM
- GI50 [57]: 66.4 µM
- TGI [57]: > 100 µM

Source: PubChem BioAssay (NCI)
